The results in this text go back to paper PMC7180830, “Scaffold Hopping in Discovery of HIV-1 Non-Nucleoside Reverse Transcriptase Inhibitors: From CH(CN)-DABOs to CH(CN)-DAPYs” (Molecules, 2020).

In series [1] the test system is HIV-1 K103N + Y181C mutant strain. Put plainly: Anti-HIV assay against double mutant K103N + Y181C in MT-4 cells. It counts as cell-based. The following applies: Human immunodeficiency virus 1, MT4, read-out: EC50 K103N + Y181C.
A further series deals with MT-4 cells. Put plainly: Cytotoxicity in mock-infected MT-4 cells, MTT method. The following applies: MT-4 cells; relative to RPV CC50. As for the experimental part:
(§1) Untreated HIV- and mock-infected cell samples were included as controls. […] Five days after infection, the viability of mock- and HIV-infected cells was examined spectrophotometrically using the MTT assay. […] All data were calculated using the median absorbance value of three wells.

Assay in series [2]: as above
The note with it: human, mock-infected (uninfected) MT-4 cells. On the procedure: as §1

The test system of series [3] is HIV-1 K103N mutant strain. Put plainly: Anti-HIV assay against K103N mutant strain in MT-4 cells. It counts as cell-based. The note with it: Human immunodeficiency virus 1, MT4, read-out: EC50 K103N.
Experimental: (§2) Evaluation of the antiviral activity of the compounds against HIV in MT-4 cells was performed using the MTT assay as previously described [24, 25]. […] Prior to use in our assays, every freshly grown virus stock was the subject of a genotypic analysis. In addition to the genotypic analysis, every stock was subject to a phenotypic analysis using a panel of relevant reference compounds in MT-4 cells. […] Stock solutions (10× final concentration) of test compounds were added in 25 μL volumes to two series of triplicate wells so as to allow simultaneous evaluation of their effects on mock- and HIV-infected cells at the beginning of each experiment. Serial 5-fold dilutions of test compounds were made directly in flat-bottomed 96-well microtiter trays using a Biomek 3000 robot (Beckman instruments, Fullerton, CA). Untreated HIV- and mock-infected cell samples were included as controls. HIV stock (50 μL) at 100–300 CCID50 (50% cell culture infectious doses) and culture medium (final 200 μL volume per well) were added to either the infected or mock-infected wells of the microtiter tray. Mock-infected cells were used to evaluate the effects of test compounds on uninfected cells in order to assess the cytotoxicity of the test compounds. Exponentially growing MT-4 cells were centrifuged for 5 min at 220× g and the supernatant was discarded. The MT-4 cells were resuspended at 6 × 10^5 cells/mL and 50 μL volumes were transferred to the microtiter tray wells. Five days after infection, the viability of mock- and HIV-infected cells was examined spectrophotometrically using the MTT assay. The MTT assay is based on the reduction of yellow colored 3-(4,5-dimethylthiazol-2-yl)-2,5-diphenyltetrazolium bromide (MTT) (Acros Organics, Geel, Belgium) by mitochondrial dehydrogenase activity in metabolically active cells to a blue-purple formazan that can be measured spectrophotometrically. The absorbances were read in an eight-channel computer-controlled photometer (Infinite M1000, Tecan, Männedorf, Switzerland) at two wavelengths (540 and 690 nm). All data were calculated using the median absorbance value of three wells.
In series [4] the test system is HIV-1 L100I mutant strain. The series is described as follows: Anti-HIV assay against L100I mutant strain in MT-4 cells. It counts as cell-based. The following applies: Human immunodeficiency virus 1, MT4, read-out: EC50 L100I.
Experimental: as §2
Series [5] deals with HIV-1 F227L + V106A mutant strain. The series is described as follows: Anti-HIV assay against double mutant F227L + V106A in MT-4 cells. It counts as cell-based. The note with it: Human immunodeficiency virus 1, MT4, read-out: EC50 F227L + V106A.
Experimental: as §2
Series [6] deals with HIV-1 E138K mutant strain. Put plainly: Anti-HIV assay against E138K mutant strain in MT-4 cells. It counts as cell-based. The following applies: Human immunodeficiency virus 1, MT4, read-out: EC50 E138K.
Experimental: as §2
Series [7] has as its system HIV-1 Y181C mutant strain. The series is described as follows: Anti-HIV assay against Y181C mutant strain in MT-4 cells. It counts as cell-based. The following applies: Human immunodeficiency virus 1, MT4, read-out: EC50 Y181C.
Experimental: as §2
The subject of the next series is HIV-1 IIIB. Put plainly: Anti-HIV assay against wild-type HIV-1 (IIIB) in MT-4 cells, MTT method. The note with it: for SI (selectivity index, ratio CC50/EC50 (WT)): CC50/EC50 WT HIV-1 IIIB, MT-4 cells; for EC50: Human immunodeficiency virus 1, IIIB, MT4, read-out: EC50 HIV-1 IIIB. It counts as cell-based. As for the experimental part: as §1
For orientation: Tetrazolium dyes change colour on reduction, which living cells bring about.

Another series deals with T1, WT HIV-1 RT (Human immunodeficiency virus type 1 group M subtype B, UniProt P03366).
T1 construct: Recombinant wild type p66/p51 HIV-1 RT; made in house
The series is described as follows: Reverse transcriptase assay (EnzCheck kit, PicoGreen). It counts as biochemical. The following applies: recombinant wild type p66/p51 HIV-1 RT.

Experimental for WT HIV-1 RT: The RT assay was performed with the EnzCheck Reverse Transcriptase Assay kit (Molecular Probes, Invitrogen), as described by the Manufacturer. The assay is based on the dsDNA quantitation reagent PicoGreen. […] This condition is met in the assay. A poly(rA) template of approximately 350 bases long and an oligo (dT)16 primer are annealed in a molar ratio of 1:1.2 (60 min at room temperature). Then, 52 ng of the RNA/DNA is brought into each well of a 96-well plate in a volume of 20 μL polymerization buffer (60 mM Tris-HCl, 60 mM KCl, 8 mM MgCl2, 13 mM DTT, 100 μM dTTP, pH 8.1). Then, 5 μL of RT enzyme solution, diluted to a suitable concentration in enzyme dilution buffer (50 mM Tris-HCl, 20% glycerol, 2 mM DTT, pH 7.6), is added. The reactions are incubated at 25 °C for 40 min and then stopped by the addition of EDTA (15 mM fc). Heteroduplexes are then detected by addition of PicoGreen. Signals are read using an excitation wavelength of 490 nm and emission detection at 523 nm using a spectrofluorometer (Safire 2, Tecan). To test the activity of compounds against RT, 1 μL of compound in DMSO was added to each well before the addition of RT enzyme solution. Control wells without compound contained the same amount of DMSO. Results are expressed as relative fluorescence, i.e., the fluorescence signal of the reaction mix with compound divided by the signal of the same reaction mix without compound.

`COc1cc(C#N)ccc1C(C#N)c1ccnc(Nc2ccc(C#N)cc2)n1` (centres unmarked) [Compound A5, 4-(4-(cyano-(2-methoxy-4-cyanophenyl)methyl)-pyrimidin-2-ylamino)benzonitrile] displayed a melting point of 189.4 to 190.1 °C. Further, the EC50 in series [1] is over 25800 nM. Besides, the “CC50 fold higher than that of RPV” value with MT-4 cells is reported as “about 5 fold”. For the same compound, half-maximal cytotoxicity in series [2] (CC50 at 5 days) was put at 25800 ± 8700 nM. Further, the concentration for a half-maximal effect (EC50) in series [3] was found to be 680 ± 160 nM. Besides, the EC50 in series [4] turned out to be 4720 ± 790 nM. Also, in [5], the EC50 is at least 12400 nM. Further, the EC50 in series [6] was 1630 ± 320 nM. The EC50 in [7] came to 1250 ± 580 nM. Moreover, in the series with HIV-1 IIIB, the “SI (selectivity index, ratio CC50/EC50 (WT))” value stood at 434 and the EC50 was found to be 59 ± 11 nM. Moreover, in the series with HIV-1 IIIB (WT HIV-1 IIIB, relative to A4), the “fold higher activity than the 3-substituted analogue (A4)” value came out at 200 fold.
The compound `Cc1cnc(Nc2ccc(C#N)cc2)nc1C(C#N)c1ccc(C#N)cc1` (centres unmarked) [Compound B1, 4-(4-(cyano-(4-cyanophenyl)methyl)-5-methylpyrimidin-2-ylamino)benzonitrile] gave a melting point of 243.1 to 243.7 °C. In [1], the concentration giving a half-maximal response (EC50) was over 109000 nM. Besides, in series [2], it took 109000 ± 80000 nM to reach half-maximal cytotoxicity (CC50 at 5 days). Also, in series [3], the EC50 is 3950 ± 220 nM. Moreover, in series [4], the EC50 was 8030 ± 4430 nM. For the same compound, the IC50 at WT HIV-1 RT was 1460 ± 90 nM. In addition, the EC50 in series [5] is at least 59000 nM. Besides, the EC50 in series [6] was 4920 ± 300 nM. Moreover, the EC50 in series [7] was found to be 7050 ± 960 nM. In addition, in the series on HIV-1 IIIB, the “SI (selectivity index, ratio CC50/EC50 (WT))” value was 356 and the EC50 is 300 ± 110 nM.
In the case of `Cc1cnc(Nc2ccc(C#N)cc2)nc1C(C#N)c1ccc(C#N)cc1F` (centres unmarked) [Compound B2, 4-(4-(cyano-(2-fluoro-4-cyanophenyl)methyl)-5 methylpyrimidin-2-ylamino)benzonitrile], the EC50 in [1] is over 20600 nM; in [3], 1070 ± 370 nM; in series [4] it was 3040 ± 1130 nM; in [5], over 20600 nM; in series [6], 970 ± 140 nM; in series [7] it was 1590 ± 180 nM. For the same compound, in the series with HIV-1 IIIB, the concentration giving a half-maximal response (EC50) is 40 ± 20 nM. In [2], this compound showed a CC50 at 5 days of 20600 ± 3600 nM. In addition, the IC50 on WT HIV-1 RT stood at 220 ± 50 nM.
Turning to `Cc1cnc(Nc2ccc(C#N)cc2)nc1C(C#N)c1ccc(C#N)cc1Cl` (centres unmarked) [Compound B3, 4-(4-(cyano-(2-chloro-4-cyanophenyl)methyl)-5-methylpyrimidin-2-ylamino)benzonitrile], the melting point fell in the range of 213.6 to 214.2 °C. Further, in series [1], the EC50 was over 9560 nM. Also, in [2], the CC50 at 5 days turned out to be 9600 ± 2700 nM. For the same compound, in series [3], the EC50 was found to be 80 ± 20 nM. For the same compound, the EC50 in series [4] came out at 820 ± 150 nM. For the same compound, the IC50 at WT HIV-1 RT worked out at 50 ± 30 nM. Further, the EC50 in series [5] is 4040 ± 700 nM. The EC50 in series [6] is 140 ± 30 nM. For the same compound, in series [7], the EC50 was found to be 260 ± 20 nM. In the series on HIV-1 IIIB, the “SI (selectivity index, ratio CC50/EC50 (WT))” value is on record as 920 and the EC50 stood at 10 ± 10 nM.
In the case of `Cc1cnc(Nc2ccc(C#N)cc2)nc1C(C#N)c1ccc(C#N)cc1Br` (centres unmarked) [Compound B4, 4-(4-(cyano-(2-bromo-4-cyanophenyl)methyl)-5-methylpyrimidin-2-ylamino)benzonitrile], the EC50 in [1] is over 6620 nM; in [3], 80 ± 30 nM; in series [4] it was 510 ± 190 nM; in series [5], 2350 ± 180 nM; in series [6] it was 110 ± 40 nM; in [7] it was 160 ± 170 nM. Also, in the series on HIV-1 IIIB, the EC50 stood at 6 ± 1 nM. The same compound came in with a CC50 at 5 days in series [2] of 6600 ± 1300 nM. For the same compound, the IC50 on WT HIV-1 RT came to 60 ± 30 nM.
Consider `Cc1cnc(Nc2ccc(C#N)cc2)nc1C(C#N)c1ccc(C#N)c(Cl)c1C` (centres unmarked) [Compound B5, 4-(4-(cyano-(2-methyl-3-chloro-4-cyanophenyl)methyl)-5-methylpyrimidin-2-ylamino)benzonitrile], for which the melting point was in the range of 205.4 to 206.5 °C. In addition, the EC50 in series [1] was over 8580 nM. Besides, the CC50 at 5 days in [2] was 8600 ± 2200 nM. Moreover, in series [3], the EC50 was found to be 390 ± 70 nM. Also, the EC50 in series [4] worked out at 1820 ± 400 nM. Besides, the IC50 on WT HIV-1 RT is 70 ± 20 nM. Moreover, in series [5], the concentration giving a half-maximal response (EC50) stood at 1660 ± 270 nM. For the same compound, the EC50 in series [6] was 600 ± 100 nM. Further, in [7], the EC50 turned out to be 1020 ± 200 nM. Further, in the series on HIV-1 IIIB, the “SI (selectivity index, ratio CC50/EC50 (WT))” value stood at 370 and the EC50 worked out at 20 ± 8 nM.
Compound `Cc1cc(C#N)c(Br)cc1C(C#N)c1nc(Nc2ccc(C#N)cc2)ncc1C` (centres unmarked) [Compound B6, 4-(4-(cyano-(2-methyl-5-bromo-4-cyanophenyl)methyl)-5-methylpyrimidin-2-ylamino)benzonitrile] showed a melting point of 232.3 to 233.9 °C. Also, the 50% effective concentration (EC50) in series [1] was over 9790 nM. Besides, the CC50 at 5 days in [2] turned out to be 9800 ± 3500 nM. Further, the EC50 in [3] came out at 60 ± 10 nM. Besides, the EC50 in series [4] was found to be 860 ± 190 nM. In addition, at WT HIV-1 RT, the IC50 came to 60 ± 20 nM. Further, the EC50 in [5] was found to be 1520 ± 150 nM. The EC50 in series [6] turned out to be 170 ± 60 nM. The EC50 in [7] was determined as 330 ± 100 nM. For the same compound, in the series with HIV-1 IIIB, the “SI (selectivity index, ratio CC50/EC50 (WT))” value turned out to be 1215 and the EC50 was 8 ± 4 nM.

By EC50 is commonly meant the midpoint of the concentration-response curve. Usually melting point stands for the temperature of the solid-liquid transition. What is called CC50 is the concentration that lowers cell viability or growth by half. High values mean lower toxicity to the cells, low ones greater toxicity to the cells. The IC50 is the concentration that inhibits the measured activity by half.
